Counter-ions that a name gives are not always drawn. Like-named read-outs stand apart in the source and are kept apart here.

Experiment [1] addresses T1, human APJ (Homo sapiens, UniProt P35414).
T1 sequence (P35414 1-380): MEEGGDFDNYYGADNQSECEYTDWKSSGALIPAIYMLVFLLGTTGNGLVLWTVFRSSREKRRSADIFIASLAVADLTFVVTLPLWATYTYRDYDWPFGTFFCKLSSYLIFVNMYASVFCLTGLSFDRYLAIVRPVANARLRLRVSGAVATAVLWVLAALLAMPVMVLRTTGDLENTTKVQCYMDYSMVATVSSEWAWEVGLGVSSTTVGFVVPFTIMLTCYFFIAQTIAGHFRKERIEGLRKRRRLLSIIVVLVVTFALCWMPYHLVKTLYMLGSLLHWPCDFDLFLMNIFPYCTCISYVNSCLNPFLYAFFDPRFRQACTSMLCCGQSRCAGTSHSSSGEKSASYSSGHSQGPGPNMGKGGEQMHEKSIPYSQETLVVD
As to the kind of experiment: Calcium mobilization assay for APJ. Format: cell-based. On the technique in general: A change in cytosolic calcium serves as a functional read-out for many receptors and channels.

The target in experiment [2] is NTR1 (Rattus norvegicus, UniProt P20789). As to the kind of experiment: Calcium mobilization assay for NTR1. The format is cell-based.
Sequence of NTR1 (P20789 whole entry): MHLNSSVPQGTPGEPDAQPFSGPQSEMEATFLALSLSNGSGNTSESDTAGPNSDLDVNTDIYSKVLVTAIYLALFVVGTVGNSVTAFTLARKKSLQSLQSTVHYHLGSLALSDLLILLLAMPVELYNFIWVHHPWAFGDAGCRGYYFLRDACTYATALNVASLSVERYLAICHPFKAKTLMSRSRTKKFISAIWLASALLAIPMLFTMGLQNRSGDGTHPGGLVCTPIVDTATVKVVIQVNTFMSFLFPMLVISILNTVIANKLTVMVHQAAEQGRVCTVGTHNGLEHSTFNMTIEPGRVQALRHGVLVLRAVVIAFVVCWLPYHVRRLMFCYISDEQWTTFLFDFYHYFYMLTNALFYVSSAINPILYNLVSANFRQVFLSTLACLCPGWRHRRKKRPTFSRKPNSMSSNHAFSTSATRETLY
The target in experiment [3] is T2, NTR2 (Rattus norvegicus, UniProt Q63384).
T2 sequence (Q63384 1-416): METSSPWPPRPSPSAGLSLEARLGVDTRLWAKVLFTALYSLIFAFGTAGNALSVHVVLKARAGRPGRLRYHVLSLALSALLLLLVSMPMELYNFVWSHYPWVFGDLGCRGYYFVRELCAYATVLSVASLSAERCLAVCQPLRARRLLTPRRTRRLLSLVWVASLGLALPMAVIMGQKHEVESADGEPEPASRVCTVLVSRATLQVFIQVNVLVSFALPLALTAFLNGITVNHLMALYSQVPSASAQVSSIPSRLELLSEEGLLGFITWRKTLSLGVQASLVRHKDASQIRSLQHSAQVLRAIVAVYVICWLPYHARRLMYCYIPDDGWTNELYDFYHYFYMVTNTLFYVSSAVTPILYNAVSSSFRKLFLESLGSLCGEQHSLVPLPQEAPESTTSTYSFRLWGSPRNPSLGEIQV
As to the kind of experiment: Calcium mobilization assay for NTR2. Format: cell-based.

In experiment [4] the target is T3, human apelin receptor (Homo sapiens, UniProt P35414).
T3 sequence (P35414 1-380): T1 sequence (P35414 1-380)
As to the kind of experiment: Radioligand displacement, [125I]-apelin-13, CHO-K1 cell membrane homogenates. Format: binding. (In a radioligand displacement assay an active substance lowers the binding of a labelled ligand.)

Experiment [5] addresses T2, NTR2. The note with it: read-out: NTR2 EC50 (off-target); cited from earlier work.
The target of experiment [6] is NTR2 receptor. The note with it: read-out: NTR2 Ki (off-target); cited from earlier work.

Turning to `COc1cccc(OC)c1-c1cc(C(=O)N[C@H](C(=O)O)C2CCCCC2)n(-c2ccc(F)cc2)n1` [Compound 1a, (S)-2-Cyclohexyl-2-(3-(2,6-dimethoxyphenyl)-1-(4-fluorophenyl)-1H-pyrazole-5-carboxamido)acetic acid], the “APJ agonist activity” value in experiment [1] (calcium mobilization) was “significantly reduce activity”.

For the compound `COc1cccc(O)c1-c1cc(C(=O)N[C@H](C(=O)O)C2CCCCC2)nn1-c1ccc(F)cc1` [Compound 13, 2-Cyclohexyl-2-(1-(4-fluorophenyl)-5-(2-hydroxy-6-methoxyphenyl)-1H-pyrazole-3-carboxamido)acetic acid], the “APJ agonist activity” value in experiment [1] (calcium mobilization) is “loss of potency”.

For `COc1cccc(OC)c1-c1cc(C(=O)N[C@H](C(=O)NO)C2CCCCC2)nn1-c1ccc(F)cc1` [Compound 9, (S)-N-(1-Cyclohexyl-2-(hydroxyamino)-2-oxoethyl)-5-(2,6-dimethoxyphenyl)-1-(4-fluorophenyl)-1H-pyrazole-3-carboxamide], the “APJ agonist activity” value in experiment [1] (calcium mobilization) is recorded as “not tolerated”. Turning to `O=C(N[C@H](C(=O)O)C1CCCCC1)c1cc(-c2c(O)cccc2O)n(-c2ccc(F)cc2)n1` [Compound 12, (S)-2-Cyclohexyl-2-(5-(2,6-dihydroxyphenyl)-1-(4-fluorophenyl)-1H-pyrazole-3-carboxamido)acetic acid], in experiment [1] (calcium mobilization), the “APJ agonist activity” value is reported as “complete loss of agonist potency”. Still for that read-out and setting: the same measure for `COc1cccc(OC)c1-c1cc(C(=O)N[C@@H](CCC(N)=O)C(=O)O)nn1-c1ccc(F)cc1` [Compound 16, (S)-5-Amino-2-(5-(2,6-dimethoxyphenyl)-1-(4-fluorophenyl)-1H-pyrazole-3-carboxamido)-5-oxopentanoic acid]: “not tolerated”. Same read-out and setting: the same measure for `COc1cccc(OC)c1-c1cc(C(=O)N[C@H](C(=O)N(C)C)C2CCCCC2)nn1-c1ccc(F)cc1` [Compound 7, (S)-N-(1-Cyclohexyl-2-(dimethylamino)-2-oxoethyl)-5-(2,6-dimethoxyphenyl)-1-(4-fluorophenyl)-1H-pyrazole-3-carboxamide]: “devoid of activity”; for `COc1cccc(OC)c1-c1cc(C(=O)N[C@H](C(=O)NCc2ccccc2)C2CCCCC2)nn1-c1ccc(F)cc1` [Compound 8, (S)-N-(2-(Benzylamino)-1-cyclohexyl-2-oxoethyl)-5-(2,6-dimethoxyphenyl)-1-(4-fluorophenyl)-1H-pyrazole-3-carboxamide]: “devoid of activity”. On the same count and under the same terms, the same measure for `COc1cccc(OC)c1-c1cc(C(=O)N[C@H](C(N)=O)C2CCCCC2)nn1-c1ccc(F)cc1` [Compound 6, (S)-N-(2-Amino-1-cyclohexyl-2-oxoethyl)-5-(2,6-dimethoxyphenyl)-1-(4-fluorophenyl)-1H-pyrazole-3-carboxamide]: “devoid of activity”. Consider `COc1cccc(OC)c1-c1cc(C(=O)N[C@H](C(=O)NCC(=O)O)C2CCCCC2)nn1-c1ccc(F)cc1` [Compound 11, (S)-2-(2-Cyclohexyl-2-(5-(2,6-dimethoxyphenyl)-1-(4-fluorophenyl)-1H-pyrazole-3-carboxamido)acetamido)acetic acid], for which the “APJ agonist activity” value in experiment [1] (calcium mobilization) is “inactive”. Still for that read-out and setting: the value for `COc1cccc(OC)c1-c1cc(C(=O)N[C@@H](CCCCNC(=O)OC(C)(C)C)C(=O)O)nn1-c1ccc(F)cc1` [Compound 17, (S)-6-((Tert-butoxycarbonyl)amino)-2-(5-(2,6-dimethoxyphenyl)-1-(4-fluorophenyl)-1H-pyrazole-3-carboxamido)hexanoic acid] was “not tolerated”; that for `COc1cccc(OC)c1-c1cc(C(=O)N[C@@H](C(=O)O)C2CCCCC2)nn1-c1ccc(F)cc1` [Compound 3, (R)-2-Cyclohexyl-2-(5-(2,6-dimethoxyphenyl)-1-(4-fluorophenyl)-1H-pyrazole-3-carboxamido)acetic acid] was “significantly reduce activity”. As to `COc1cccc(OC)c1-c1cc(C(=O)N[C@@H](CCC2CCCCC2)CC(=O)O)nn1-c1ccc(F)cc1` [Compound 22, (S)-5-Cyclohexyl-3-(5-(2,6-dimethoxyphenyl)-1-(4-fluorophenyl)-1H-pyrazole-3-carboxamido)pentanoic acid], in experiment [1] (calcium mobilization), the “APJ agonist activity” value is given as “full agonist”. For the same compound, in experiment [2], the “NTR1 activity as agonist or antagonist” value is listed as “Neither compound had any significant NTR1 activity”. Moreover, the “NTR2 functional behaviour” value in experiment [3] was “partial agonists at NTR2”. In the case of `COC(=O)CNC(=O)[C@@H](NC(=O)c1cc(-c2c(OC)cccc2OC)n(-c2ccc(F)cc2)n1)C1CCCCC1` [Compound 10, (S)-Methyl 2-(2-cyclohexyl-2-(5-(2,6-dimethoxyphenyl)-1-(4-fluorophenyl)-1H-pyrazole-3-carboxamido)acetamido)acetate], the “APJ agonist activity” value in experiment [1] (calcium mobilization) is “inactive”. For `COc1cccc(OC)c1-c1cc(C(=O)NCC2CCCCC2)nn1-c1ccc(F)cc1` [Compound 5, N-(Cyclohexylmethyl)-5-(2,6-dimethoxyphenyl)-1-(4-fluorophenyl)-1H-pyrazole-3-carboxamide], the “APJ agonist activity” value in experiment [1] (calcium mobilization) was “did not possess activity”.

With `Cc1cc(C(=O)N[C@H](C(=O)O)C2CCCCC2)nn1-c1ccc(F)cc1` [Compound 15, (S)-2-Cyclohexyl-2-(1-(4-fluorophenyl)-5-methyl-1H-pyrazole-3-carboxamido)acetic acid], in experiment [1] (calcium mobilization), the “APJ agonist activity” value is “inactive”.

As for `COc1cccc(OC)c1-c1cc(C(=O)N[C@@H](CC(=O)O)C2CCCCC2)nn1-c1ccc(F)cc1` [Compound 21, (S)-3-Cyclohexyl-3-(5-(2,6-dimethoxyphenyl)-1-(4-fluorophenyl)-1H-pyrazole-3-carboxamido)propanoic acid], the EC50 in experiment [1] is 9900 ± 2600 nM. In experiment [2], the “NTR1 activity as agonist or antagonist” value was “Neither compound had any significant NTR1 activity”. This compound also gave an inhibition constant Ki in experiment [4] of 1400 ± 200 nM. Also, in experiment [3], the EC50 was approximately 345 nM and the “NTR2 functional behaviour” value is recorded as “partial agonists at NTR2”. Further, in experiment [3] (read-out: NTR2 Emax), the Emax was 57%. For the compound `COC(=O)[C@@H](NC(=O)c1cc(-c2c(OC)cccc2OC)n(-c2ccc(F)cc2)n1)C1CCCCC1` [Compound 4, (S)-Methyl 2-cyclohexyl-2-(5-(2,6-dimethoxyphenyl)-1-(4-fluorophenyl)-1H-pyrazole-3-carboxamido)acetate], the “APJ agonist activity” value in experiment [1] (calcium mobilization) is on record as “did not possess activity”. `COc1cccc(OC)c1-c1cc(C(=O)N[C@@H](CCCCN)C(=O)O)nn1-c1ccc(F)cc1` [Compound 18, (S)-6-Amino-2-(5-(2,6-dimethoxyphenyl)-1-(4-fluorophenyl)-1H-pyrazole-3-carboxamido)hexanoic acid trifluoroacetate]: the “APJ agonist activity” value in experiment [1] (calcium mobilization) was “not tolerated”. Take `CCCCC(=O)N(Cc1ccc(-c2ccccc2-c2nnn[nH]2)cc1)[C@H](C(=O)O)C(C)C` [valsartan, reference compound]: the “APJ agonist activity” value in experiment [1] (calcium mobilization) is “none of these analogs possessed agonist activity”. On the same count and under the same terms, the value for `COc1cccc(OC)c1-c1cc(C(=O)N[C@@H](CC(C)C)C(=O)O)nn1-c1ccc(F)cc1` [Compound 19, (S)-2-(5-(2,6-Dimethoxyphenyl)-1-(4-fluorophenyl)-1H-pyrazole-3-carboxamido)-4-methylpentanoic acid] was “did not retain APJ potency”. On to `COc1cccc(OC)c1-c1cc(C(=O)N[C@H](C(=O)O)C2CCCCC2)nn1-c1ccc(F)cc1` [Compound 1], for which the EC50 was 21500 ± 5000 nM in experiment [1] (read-out: functional EC50 at APJ, calcium mobilization) and 271 nM in experiment [5]. Also, the Ki in experiment [6] was 622 nM. The “displacement of 125I radiolabeled pyr-apelin-13” value in experiment [4] is reported as 100%. In experiment [4] (radioligand displacement studies), the “mode of binding at APJ” value is reported as “competitive orthosteric ligand of APJ”. For `CCCCc1nc(Cl)c(CO)n1Cc1ccc(-c2ccccc2-c2nn[nH]n2)cc1` [losartan, reference compound], the “APJ agonist activity” value in experiment [1] (calcium mobilization) is “none of these analogs possessed agonist activity”.

The term EC50 denotes the concentration giving half of the maximal effect. One may read the Ki as the equilibrium dissociation constant of an inhibitor or competing ligand from its target. By Emax is commonly meant the maximal effect, on the per cent scale that the assay sets.
